Data on 15 compounds can be found in patent publication US8273737B2, “Quinolizidinone M1 receptor positive allosteric modulators” (Merck Sharp & Dohme Corp., priority 2008, dated 2012).

pEC50: −log10 of the molar value.

The target in the assay is T1, acetylcholine muscarinic M1 receptor (Homo sapiens, UniProt P11229).
T1 construct: expressed in transfected cells; host or cells: CHOnfat (CHO cells, Geneticin-selected)
T1 sequence (P11229 1-460): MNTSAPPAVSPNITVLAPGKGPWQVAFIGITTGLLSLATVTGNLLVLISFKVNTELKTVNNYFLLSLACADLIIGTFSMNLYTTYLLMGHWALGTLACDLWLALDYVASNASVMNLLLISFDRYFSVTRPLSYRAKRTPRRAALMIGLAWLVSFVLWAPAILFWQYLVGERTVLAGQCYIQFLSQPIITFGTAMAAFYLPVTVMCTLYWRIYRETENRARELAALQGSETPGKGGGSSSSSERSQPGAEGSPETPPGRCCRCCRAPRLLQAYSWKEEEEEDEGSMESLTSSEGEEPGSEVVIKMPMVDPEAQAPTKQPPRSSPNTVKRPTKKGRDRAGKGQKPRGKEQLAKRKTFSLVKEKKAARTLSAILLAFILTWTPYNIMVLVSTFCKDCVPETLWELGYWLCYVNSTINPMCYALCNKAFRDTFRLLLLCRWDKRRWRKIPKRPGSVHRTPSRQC
The assay is described as follows: muscarinic FLIPR assay: potentiation of acetylcholine-stimulated intracellular Ca2+ in CHOnfat/hM1 cells. To be noted: 4 min preincubation, then EC20 acetylcholine (3 nM final), read-out: IP Value (inflection point). The assay is classed as cell-based. The protocol:
The assay studies the effect of one or several concentrations of test compounds on basal or acetylcholine-stimulated Ca^2+ levels using FLIPR.
Compounds are prepared and subjected to a preincubation period of 4 min. Thereafter, a single EC20 concentration of acetylcholine is added to each well (3 nM final). The intracellular Ca^2+ level of each sample is measured and compared to an acetylcholine control to determine any modulatory activity.
Cells: CHOnfat/hM1, hM2, hM3 or hM4 cells are plated 24 hr before the assay at a density of 18,000 cells/well (100 μL) in a 384 well plate. CHOnfat/hM1 and CHOnfat/hM3 Growth Medium: 90% DMEM (Hi Glucose); 10% HI FBS; 2 mM L-glutamine; 0.1 mM NEAA; Pen-Strep; and 1 mg/ml Geneticin, are added. For M2Gqi5CHOnfat and M4Gqi5CHOnfat cells, an additional 600 μg/ml hygromycin is added.
Equipment: 384 well plate, 120 μL addition plate; 96-well Whatman 2 ml Uniplate Incubator, 37° C., 5% CO2; Skatron EMBLA-384 Plate Washer; Multimek Pipetting System; Genesis Freedom 200 System; Mosquito System; Temo Nanolitre Pipetting System; and FLIPR^384 Fluorometric Imaging Plate Reader System are used.
Buffers. Assay Buffer: Hanks Balanced Salt Solution, with 20 mM Hepes, 2.5 mM Probenecid (Sigma P-8761) first dissolved in 1N aqueous NaOH, 1% Bovine Serum Albumin (Sigma A-9647). Dye Loading Buffer: Assay Buffer plus 1% Fetal Bovine Serum and Fluo-4AM/Pluronic Acid Mixture. 2 mM Fluo-4AM ester stock in DMSO (Molecular Probes F-14202) Concentration of 2 μM in buffer for a final concentration of 1 μM in Assay. 20% Pluronic Acid Solution stock, with a concentration of 0.04% in Buffer, 0.02% in Assay.
65 μL of 2 mM Fluo-4AM are mixed with 130 μL of 20% Pluronic Acid. The resulting solution and 650 μL FBS is added to the assay buffer for a total volume of 65 mL. Positive Controls: 4-Br-A23187: 10 mM in DMSO; final concentration 10 μM. Acetylcholine: 10 mM in water, working stock at both 20 μM and 30 μM in assay buffer, final concentration of 10 μM. This is used to check the maximum stimulation of the CHOK1/hM1 cells. 20 μM (2×) acetylcholine is added in the preincubation part of the assay, and the 30 μM (3×) stock is added in the second part. (EC20)Acetylcholine: 10 mM in water, working stock of 9 nM (3×), and final concentration in assay is 3 nM. This is used after the preincubation with test compounds. Addition of the EC20 Acetylcholine to each well with a test compound will ascertain any modulator activity. 24 wells contain 3 nM Acetylcholine alone as a control.
Determining Activity of Putative Compounds:
Screening Plate Compounds are titrated in 96-well plates (columns 2-11), 100% DMSO, started at a concentration of 15 mM (150× stock concentration), and 3-fold serial dilutions using Genesis Freedom200 System. Four 96-well plates are combined into a 384-well plate using Mosquito Nanolitre Pipetting System by transferring 1 μl of serial diluted compounds to each well, and 1 mM acetylcholine (100× stock concentration) were added as a control. Using Temo, 49 μl assay buffer is added to each well of the 384-well plate right before assay.
In a 96-well Whatman 2 ml Uniplate, 9 nM Acetylcholine (3×) is pipetted into wells corresponding to the screening compounds and into control wells. The 30 μM acetylcholine control (3×) is added into control wells and the 3× agonist plate is transferred into a 384-well plate.
Cells are washed three times with 100 μL of buffer, leaving 30 μL of buffer in each well. Using Multimek, 30 μL of Dye Loading Buffer is added into each well and incubated at 37° C., 5% CO2 for up to one hr.
After 60 min, the cells are washed three times with 100 μL of buffer, leaving 30 μL of buffer in each well. The cell plate, screening plate, and agonist addition plates are placed on the platform in the FLIPR and the door is closed. A signal test to check background fluorescence and basal fluorescence signal is performed. Laser intensity is adjusted if necessary. […]
In the case of `O=C(O)c1cc(CN2CCN(c3ccc(C(F)(F)F)cc3)CC2)c2ccccn2c1=O` [Example 1, 4-oxo-1-({4-[4-(trifluoromethyl)phenyl]piperazin-1-yl}methyl)-4H-quinolizine-3-carboxylic acid], the pEC50 is 6.57.

`O=C(O)c1cc(CN2CCN(c3ccc(Br)cc3)CC2)c2ccccn2c1=O` [Example 61]: the pEC50 is 6.88.

As to `Cn1cc(N2CCN(Cc3cc(C(=O)O)c(=O)n4ccccc34)CC2)cn1` [Example 113], the pEC50 is 6.39.

`O=C(O)c1cc(CN2CCN(c3cc4ccccc4cn3)CC2)c2ccccn2c1=O` [Example 133]: the pEC50 was 7.05.

In the case of `O=C(O)c1cc(CN2CCN(c3ccc4sccc4c3)CC2)c2ccccn2c1=O` [Example 143], the pEC50 is 7.15.

For the compound `O=C(O)c1cc(CN2CCN(c3ccc4ncsc4c3)CC2)c2ccccn2c1=O` [Example 144], the pEC50 is 7.09.

`N#Cc1cc2cc(N3CCN(Cc4cc(C(=O)O)c(=O)n5ccccc45)CC3)ccc2o1` [Example 145, 1-{[4-(2-cyano-1-benzofuran-5-yl)piperazin-1-yl]methyl}-4-oxo-4H-quinolizine-3-carboxylic acid]: the pEC50 is 7.04.

For `N#Cc1ccc(N2CCN(Cc3cc(C(=O)O)c(=O)n4ccccc34)CC2)cc1` [Example 146, 1-{[4-(4-cyanophenyl)piperazin-1-yl]methyl}-4-oxo-4H-quinolizine-3-carboxylic acid], the pEC50 was 6.21.

Take `N#Cc1ccc(N2CCN(Cc3cc(C(=O)O)c(=O)n4ccccc34)CC2)cn1` [Example 147, 1-{[4-(6-cyanopyridin-3-yl)piperazin-1-yl]methyl}-4-oxo-4H-quinolizine-3-carboxylic acid]: the pEC50 was 6.21.

Take `C=Cc1cc(N2CCN(Cc3cc(C(=O)O)c(=O)n4ccccc34)CC2)ccn1` [Example 148, 4-Oxo-1-{[4-(2-vinylpyridin-4-yl)piperazine-1-yl]methyl}-4H-quinolizine-3-carboxylic acid]: the pEC50 was 6.42.

Take `CSc1cc(N2CCN(Cc3cc(C(=O)O)c(=O)n4ccccc34)CC2)ccn1` [Example 153, 1-({4-[2-(methylthio)pyridine-4-yl]piperazine-1-yl}methyl)-4-oxo-4H-quinolizine-3-carboxylic acid]: the pEC50 was 6.19.

Turning to `CS(=O)(=O)c1cc(N2CCN(Cc3cc(C(=O)O)c(=O)n4ccccc34)CC2)ccn1` [Example 154], the pEC50 was 5.78.

For `CN1CCN(Cc2cc(C(=O)O)c(=O)n3ccccc23)C(c2cccc(F)c2)C1=O` (stereo not drawn) [Example 155, 1-{[2-(3-fluorophenyl)-4-methyl-3-oxopiperazin-1-yl]methyl}-4-oxo-4H-quinolizine-3-carboxylic acid], the pEC50 was 5.31.

Consider `O=C(O)c1cc(CN2CCN(c3ccccc3)C(=O)C2c2cccc(F)c2)c2ccccn2c1=O` (stereo not drawn) [Example 160, 1-{[2-(3-fluorophenyl)-3-oxo-4-phenylpiperazin-1-yl]methyl}-4-oxo-4H-quinolizine-3-carboxylic acid], for which the pEC50 is 6.92.

As to `O=C(O)c1cc(CN2CCOCC2)c2ccccn2c1=O` [Example 179, 1-(morpholin-4-ylmethyl)-4-oxo-4H-quinolizine-3-carboxylic acid], the pEC50 was 5.16.
